# In PubChem BioAssay (NCI):
#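 A five-concentration, 48-hour dose response in 96-well plates underlies each endpoint, interpolated linearly between surrounding concentrations. Definition used: TGI = concentration required for complete inhibition of growth.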
# How the values were obtained:
# Experiment in all cases: growth of human tumour cells (NCI), 48 h
# [1] = test system: M19-MEL melanoma
# [2] = test system: DMS 273 small cell lung
# [3] = test system: HCC-2998 colon
# [4] = test system: OVCAR-5 ovarian
# [5] = test system: NCI-H226 lung
# [6] = test system: SNB-19 CNS
# [7] = test system: HCT-116 colon
# [8] = test system: OVCAR-3 ovarian
# [9] = test system: RXF 393 renal
# [10] = test system: CCRF-CEM leukemia
# [11] = test system: IGROV1 ovarian
# [12] = test system: HOP-62 NSCLC
# [13] = test system: SR leukemia
# [14] = test system: NCI-H460 lung
# [15] = test system: TK-10 renal
# [16] = test system: DMS 114 small cell lung
# [17] = test system: KM12 colon
# [18] = test system: SK-OV-3 ovarian
# [19] = test system: HT29 colon
# [20] = test system: U251 CNS
# [21] = test system: NCI-H23 lung
# [22] = test system: UACC-257 melanoma
# [23] = test system: KM20L2 colon
# [24] = test system: LXFL 529 NSCLC
# [25] = test system: UO-31 renal
# [26] = test system: OVCAR-8 ovarian
# [27] = test system: K-562 leukemia
# [28] = test system: SN12C renal
# [29] = test system: DLD-1 colon
# [30] = test system: SNB-78 CNS
# [31] = test system: SF-539 CNS
# [32] = test system: HCT-15 colon
# [33] = test system: 786-0 renal
# [34] = test system: SW-620 colon
# [35] = test system: SK-MEL-2 melanoma
# [36] = test system: RXF-631 renal
# [37] = test system: SF-268 CNS
# [38] = test system: M14 melanoma
# [39] = test system: COLO 205 colon
# [40] = test system: SNB-75 CNS
# [41] = test system: SF-295 CNS
# [42] = test system: HOP-18 NSCLC
# [43] = test system: HL-60(TB) leukemia
# [44] = test system: RPMI-8226 leukemia
# [45] = test system: NCI-H522 lung
# [46] = test system: LOX IMVI melanoma
# [47] = test system: SK-MEL-28 melanoma
# [48] = test system: A498 renal
# [49] = test system: UACC-62 melanoma
# [50] = test system: OVCAR-4 ovarian
# [51] = test system: MOLT-4 leukemia
# [52] = test system: EKVX NSCLC
# [53] = test system: CAKI-1 renal
# [54] = test system: SK-MEL-5 melanoma
# [55] = test system: A549 NSCLC
# [56] = test system: ACHN renal
# [57] = test system: MALME-3M melanoma
# [58] = test system: HOP-92 NSCLC
# [59] = test system: T-47D breast
# [60] = test system: MCF7 breast
# [61] = test system: MDA-MB-231 breast
# [62] = test system: MDA-N
# [63] = test system: DU-145 prostate
# [64] = test system: BT-549 breast
# [65] = test system: MDA-MB-435
# [66] = test system: PC-3 prostate
# [67] = test system: XF 498 CNS
smiles,measurement,setting,value
CCCCCCCCCCCCCCCC(=O)OCC1OC(n2cc(F)c(=O)[nH]c2=O)C(NC(=O)N(CCCl)N=O)C(O)C1O (stereo not given),TGI,[1],9.91 µM
same,TGI,[2],4.3 µM
same,TGI,[3],11.3 µM
same,TGI,[4],25.9 µM
same,TGI,[5],24 µM
same,TGI,[6],8.71 µM
same,TGI,[7],3.07 µM
same,TGI,[8],20.9 µM
same,TGI,[9],8.37 µM
same,TGI,[10],6.58 µM
same,TGI,[11],18.1 µM
same,TGI,[12],2.34 µM
same,TGI,[13],5.8 µM
same,TGI,[14],4.81 µM
same,TGI,[15],26.1 µM
same,TGI,[16],5.02 µM
same,TGI,[17],4.91 µM
same,TGI,[18],14.3 µM
same,TGI,[19],14.1 µM
same,TGI,[20],3.74 µM
same,TGI,[21],2.84 µM
same,TGI,[22],17.8 µM
same,TGI,[23],18.4 µM
same,TGI,[24],15.8 µM
same,TGI,[25],29.6 µM
same,TGI,[26],9.69 µM
same,TGI,[27],25.6 µM
same,TGI,[28],15.6 µM
same,TGI,[29],12.5 µM
same,TGI,[30],18.1 µM
same,TGI,[31],1.36 µM
same,TGI,[32],15.1 µM
same,TGI,[33],3.59 µM
same,TGI,[34],6.58 µM
same,TGI,[35],3.3 µM
same,TGI,[36],17.9 µM
same,TGI,[37],2.83 µM
same,TGI,[38],11.7 µM
same,TGI,[39],9.51 µM
same,TGI,[40],1.56 µM
same,TGI,[41],6.03 µM
same,TGI,[42],33.3 µM
same,TGI,[43],7.69 µM
same,TGI,[44],20.5 µM
same,TGI,[45],10 µM
same,TGI,[46],2.24 µM
same,TGI,[47],7.96 µM
same,TGI,[48],10.1 µM
same,TGI,[49],1.17 µM
same,TGI,[50],20.5 µM
same,TGI,[51],> 39.9 µM
same,TGI,[52],7.18 µM
same,TGI,[53],20.5 µM
same,TGI,[54],9.8 µM
same,TGI,[55],7.14 µM
same,TGI,[56],10.9 µM
same,TGI,[57],10.1 µM
same,TGI,[58],11.6 µM
N#CCCN(CCC#N)c1ccc(C=Nc2ccc(F)cc2)cc1,TGI,[1],> 44.5 µM
same,TGI,[2],> 100 µM
same,TGI,[3],> 100 µM
same,TGI,[4],> 100 µM
same,TGI,[5],> 100 µM
same,TGI,[6],> 100 µM
same,TGI,[7],> 100 µM
same,TGI,[8],> 100 µM
same,TGI,[9],> 100 µM
same,TGI,[10],> 100 µM
same,TGI,[11],> 100 µM
same,TGI,[12],> 100 µM
same,TGI,[13],> 100 µM
same,TGI,[59],> 100 µM
same,TGI,[14],> 100 µM
same,TGI,[15],> 92.6 µM
same,TGI,[60],> 100 µM
same,TGI,[16],> 100 µM
same,TGI,[17],> 100 µM
same,TGI,[18],> 100 µM
same,TGI,[19],> 100 µM
same,TGI,[20],> 100 µM
same,TGI,[21],> 100 µM
same,TGI,[22],> 100 µM
same,TGI,[23],> 100 µM
same,TGI,[24],> 100 µM
same,TGI,[25],> 100 µM
same,TGI,[26],> 100 µM
same,TGI,[27],> 100 µM
same,TGI,[28],> 100 µM
same,TGI,[29],> 100 µM
same,TGI,[61],> 100 µM
same,TGI,[30],> 100 µM
same,TGI,[31],> 83.2 µM
same,TGI,[32],> 100 µM
same,TGI,[33],> 100 µM
same,TGI,[34],> 100 µM
same,TGI,[62],> 100 µM
same,TGI,[35],> 32.3 µM
same,TGI,[36],> 100 µM
same,TGI,[37],> 100 µM
same,TGI,[38],> 100 µM
same,TGI,[39],70.3 µM
same,TGI,[40],> 100 µM
same,TGI,[41],> 100 µM
same,TGI,[42],> 100 µM
same,TGI,[43],> 100 µM
same,TGI,[44],> 100 µM
same,TGI,[45],> 100 µM
same,TGI,[46],> 100 µM
same,TGI,[47],> 100 µM
same,TGI,[48],> 100 µM
same,TGI,[49],> 54.2 µM
same,TGI,[50],> 100 µM
same,TGI,[51],> 100 µM
same,TGI,[63],> 100 µM
same,TGI,[52],> 100 µM
same,TGI,[53],> 100 µM
same,TGI,[54],> 100 µM
same,TGI,[55],> 100 µM
same,TGI,[64],> 100 µM
same,TGI,[65],> 100 µM
same,TGI,[56],> 100 µM
same,TGI,[66],> 100 µM
same,TGI,[67],> 100 µM
same,TGI,[57],> 100 µM
same,TGI,[58],> 100 µM
